Reference: patent publication US8071586B2, “Heterocyclyl compounds” (Hoffmann-La Roche Inc., priority 2008, dated 2011)

Molecular target: T1, human chemokine receptor 2 isoform B (CCR2) (Homo sapiens, UniProt P41597)
T1 sequence (P41597 1-360 isoform P41597-2): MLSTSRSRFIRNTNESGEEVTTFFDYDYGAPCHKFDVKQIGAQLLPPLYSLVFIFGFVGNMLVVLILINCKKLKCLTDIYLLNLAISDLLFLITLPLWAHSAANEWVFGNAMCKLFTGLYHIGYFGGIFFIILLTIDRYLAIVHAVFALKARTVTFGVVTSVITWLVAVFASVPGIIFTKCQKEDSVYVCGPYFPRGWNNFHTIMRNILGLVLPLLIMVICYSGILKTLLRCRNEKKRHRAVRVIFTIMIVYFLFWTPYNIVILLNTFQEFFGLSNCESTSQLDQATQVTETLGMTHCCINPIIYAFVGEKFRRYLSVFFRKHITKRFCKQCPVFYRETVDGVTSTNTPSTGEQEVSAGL
Test: Calcium mobilization assay (FLIPR, MCP-1 stimulated CHOK1-CCR2B-A5 cells)
Type: cell-based
Conditions: Ca mobilisation assay, CCR2 antagonist activity, inhibition of MCP-1 induced calcium increase
Description: Calcium Mobilization Assay
CHOK1-CCR2B-A5 cells (from Euroscreen) stably overexpressing the human chemokine receptor 2 isoform B were cultured in Nutrient Hams F12 medium supplemented with 5% FBS, 100 U/ml penicillin, 100 μg/ml streptomycin, 400 μg/ml G418 and 5 μg/ml puromycin.
For the assay cells were grown overnight in 384-well black clear flat bottom polystyrene plates (Costar) at 37° C. at 5% CO2. After washing with DMEM, 20 mM Hepes, 2.5 mM probenecid, 0.1% BSA (DMEM assay buffer) cells were loaded with 4 μM Fluo-4 in the same DMEM assay buffer for 2 hours at 30° C. Excess dye was removed and cells were washed with DMEM assay buffer. 384-well compound plates were prepared with DMEM assay buffer/0.5% DMSO with or without various concentrations of test compounds. Usually compounds were tested for agonist and antagonist activity.
Test compounds were added to the assay plate and agonist activity was monitored as fluorescence for 80 seconds with a FLIPR (488 nm excitation; 510-570 nm emission; Molecular Devices). After 20-30 min. of incubation at 30° C., […] MCP-1 (R&D; Roche) was added and fluorescence was monitored again for 80 seconds. Increases in intracellular calcium are reported as maximum fluorescence after agonist exposure minus basal fluorescence before exposure. Antagonist activity is indicated as inhibitor concentration required for 50% inhibition of specific calcium increases.

Compared with `CC1CN(C(CO)CCN2CCC3(CC3)[C@H](O)C2)C(=O)CCN1C(=O)Nc1cccc(Cl)c1` (stereo in doubt) [Example 63, (R)-4-[(S)-3-((S)-4-Hydroxy-6-aza-spiro[2.5]oct-6-yl)-1-hydroxymethyl-propyl]-2-methyl-5-oxo-[1,4]diazepane-1-carboxylic acid (3-chloro-phenyl)-amide], `COCC(CCN1CCC2(CC2)[C@H](O)C1)N1CC(C)N(C(=O)Nc2cccc(Cl)c2)CCC1=O` (stereo in doubt) [Example 65, (R)-4-[(S)-3-((S)-4-Hydroxy-6-aza-spiro[2.5]oct-6-yl)-1-methoxymethyl-propyl]-2-methyl-5-oxo-[1,4]diazepane-1-carboxylic acid (3-chloro-phenyl)-amide] is 4.1-fold higher in IC50: 5.1 nM for the first, 21 nM for the second.

Going from `COCC(CCN1CCC2(CC2)[C@H](O)C1)N1CC(C)N(C(=O)Nc2cccc(C(F)(F)F)c2)CCC1=O` (stereo in doubt) [Example 66, (R)-4-[(S)-3-((S)-4-Hydroxy-6-aza-spiro[2.5]oct-6-yl)-1-methoxymethyl-propyl]-2-methyl-5-oxo-[1,4]diazepane-1-carboxylic acid (3-trifluoromethyl-phenyl)-amide] to `COCC(CCN1CCC2(CC2)[C@H](O)C1)N1CC(C)N(C(=O)Nc2ccc(Cl)c(Cl)c2)CCC1=O` (stereo in doubt) [Example 68, (R)-4-[(S)-3-((S)-4-Hydroxy-6-aza-spiro[2.5]oct-6-yl)-1-methoxymethyl-propyl]-2-methyl-5-oxo-[1,4]diazepane-1-carboxylic acid (3,4-dichloro-phenyl)-amide], the IC50 falls from 33 nM to 3 nM (11-fold).

First: COC(=O)C(CCN1CCC2(CC2)[C@H](O)C1)N1CCN(C(=O)Nc2cccc(Cl)c2)CCC1=O (stereo partly drawn) [Example 1, (R,S)-2-[4-(3-Chloro-phenylcarbamoyl)-7-oxo-[1,4]diazepan-1-yl]-4-((S)-4-hydroxy-6-aza-spiro[2.5]oct-6-yl)-butyric acid methyl ester]
Second: COC(=O)[C@H](CCN1CCC2(CC2)[C@H](O)C1)N1CCN(C(=O)Nc2cccc(Cl)c2)CCC1=O [Example 3, (S)-2-[4-(3-Chloro-phenylcarbamoyl)-7-oxo-[1,4]diazepan-1-yl]-4-((S)-4-hydroxy-6-aza-spiro[2.5]oct-6-yl)-butyric acid methyl ester]
The IC50 of the first is 1.7-fold higher: 470 nM for the first, 270 nM for the second. The second is the more potent here.

Going from `O=C(Nc1cccc(Cl)c1)N1CCC(=O)N(C(CO)CCN2CCC3(CC3)[C@H](O)C2)CC1` (stereo partly drawn) [Example 2, (R,S)-4-[3-((S)-4-Hydroxy-6-aza-spiro[2.5]oct-6-yl)-1-hydroxymethyl-propyl]-5-oxo-[1,4]diazepane-1-carboxylic acid (3-chloro-phenyl)-amide] to `O=C(Nc1cccc(Cl)c1)N1CCC(=O)N([C@H](CO)CCN2CCC3(CC3)[C@H](O)C2)CC1` [Example 4, 4-[(S)-3-((S)-4-Hydroxy-6-aza-spiro[2.5]oct-6-yl)-1-hydroxymethyl-propyl]-5-oxo-[1,4]diazepane-1-carboxylic acid (3-chloro-phenyl)-amide], the IC50 falls from 40 nM to 10 nM (4-fold).

Compared with `COCC(CCN1CCC2(CC2)[C@H](O)C1)N1CCN(C(=O)Nc2cccc(Cl)c2)CCC1=O` (stereo partly drawn) [Example 5, (R,S)-4-[3-((S)-4-Hydroxy-6-aza-spiro[2.5]oct-6-yl)-1-methoxymethyl-propyl]-5-oxo-[1,4]diazepane-1-carboxylic acid (3-chloro-phenyl)-amide], `CN(C)C(=O)C(CCN1CCC2(CC2)[C@H](O)C1)N1CCN(C(=O)Nc2cccc(Cl)c2)CCC1=O` (stereo partly drawn) [Example 10, (R,S)-4-[1-Dimethylcarbamoyl-3-((S)-4-hydroxy-6-aza-spiro[2.5]oct-6-yl)-propyl]-5-oxo-[1,4]diazepane-1-carboxylic acid (3-chloro-phenyl)-amide] is 16-fold higher in IC50: 50 nM for the first, 780 nM for the second. The first is the more potent here.

Compared with `COCC(CCN1CCC2(CC2)[C@H](O)C1)N1CCN(C(=O)NCc2ccc(Cl)c(Cl)c2)CCC1=O` (stereo partly drawn) [Example 6, (R,S)-4-[3-((S)-4-Hydroxy-6-aza-spiro[2.5]oct-6-yl)-1-methoxymethyl-propyl]-5-oxo-[1,4]diazepane-1-carboxylic acid 3,4-dichloro-benzylamide], `COCC(CCN1CCC2(CC2)[C@H](O)C1)N1CCN(C(=O)Oc2ccc(Cl)c(Cl)c2)CCC1=O` (stereo partly drawn) [Example 7, (R,S)-4-[3-((S)-4-Hydroxy-6-aza-spiro[2.5]oct-6-yl)-1-methoxymethyl-propyl]-5-oxo-[1,4]diazepane-1-carboxylic acid 3,4-dichloro-phenyl ester] is 2.3-fold lower in IC50: 840 nM for the first, 370 nM for the second.

Going from `O=C(Oc1ccc(Cl)c(Cl)c1)N1CCC(=O)N(C(CO)CCN2CCC3(CC3)[C@H](O)C2)CC1` (stereo partly drawn) [Example 9, (R,S)-4-[3-((S)-4-Hydroxy-6-aza-spiro[2.5]oct-6-yl)-1-hydroxymethyl-propyl]-5-oxo-[1,4]diazepane-1-carboxylic acid 3,4-dichloro-phenyl ester] to `O=C1CCN(C(=O)Nc2ccc(Cl)c(Cl)c2)CCN1CCCN1CCCCC1` [Example 11, 5-Oxo-4-(3-piperidin-1-yl-propyl)-[1,4]diazepane-1-carboxylic acid (3,4-dichloro-phenyl)-amide], the IC50 rises from 420 nM to 980 nM (2.3-fold).

`O=C1CCN(C(=S)Nc2ccc(Cl)c(Cl)c2)CCN1CCCN1CCCCC1` [Example 18, 5-Oxo-4-(3-piperidin-1-yl-propyl)-[1,4]diazepane-1-carbothioic acid (3,4-dichloro-phenyl)-amide] and `C[C@@H]1CN(CCCN2CCCCC2)C(=O)CCN1C(=S)Nc1ccc(Cl)c(Cl)c1` [Example 26, (R)-2-Methyl-5-oxo-4-(3-piperidin-1-yl-propyl)-[1,4]diazepane-1-carbothioic acid (3,4-dichloro-phenyl)-amide] are within 1.5-fold of each other in IC50: 600 nM for the first, 580 nM for the second.

Compared with `O=C(Nc1ccc(Cl)c(Cl)c1)N1CCN(CCCN2CCCCC2)S(=O)(=O)CC1` [Example 21, 1,1-Dioxo-2-(3-piperidin-1-yl-propyl)-[1,2,5]thiadiazepane-5-carboxylic acid (3,4-dichloro-phenyl)-amide], `O=S1(=O)CCN(C(=S)Nc2ccc(Cl)c(Cl)c2)CCN1CCCN1CCCCC1` [Example 22, 1,1-Dioxo-2-(3-piperidin-1-yl-propyl)-[1,2,5]thiadiazepane-5-carbothioic acid (3,4-dichloro-phenyl)-amide] is 2.1-fold higher in IC50: 370 nM for the first, 770 nM for the second.

Going from `C[C@@H]1CN(CCCN2CCCCC2)C(=O)CCN1C(=O)Nc1ccc(Cl)c(Cl)c1` [Example 25, (R)-2-Methyl-5-oxo-4-(3-piperidin-1-yl-propyl)-[1,4]diazepane-1-carboxylic acid (3,4-dichloro-phenyl)-amide] to `O=C1CCN(C(=O)Nc2ccc(Cl)c(Cl)c2)[C@H](c2ccccc2)CN1CCCN1CCCCC1` [Example 30, (R)-5-Oxo-2-phenyl-4-(3-piperidin-1-yl-propyl)-[1,4]diazepane-1-carboxylic acid (3,4-dichloro-phenyl)-amide], the IC50 rises from 380 nM to 960 nM (2.5-fold).

Compared with `O=C1CCN(C(=O)Nc2ccc(Cl)c(Cl)c2)[C@H](Cc2ccccc2)CN1CCCN1CCCCC1` [Example 27, (R)-2-Benzyl-5-oxo-4-(3-piperidin-1-yl-propyl)-[1,4]diazepane-1-carboxylic acid (3,4-dichloro-phenyl)-amide], `C[C@H]1C(=O)N(CCCN2CCCCC2)CCN1C(=O)Nc1cccc(Cl)c1` [Example 35, (S)-2-Methyl-3-oxo-4-(3-piperidin-1-yl-propyl)-piperazine-1-carboxylic acid (3-chloro-phenyl)-amide] is 1.7-fold higher in IC50: 540 nM for the first, 940 nM for the second. The first is the more potent here.
